PubChem BioAssay (NCI)
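All cell lines were grown in 96-well plates and treated with compound for 48 hours. The concentration for full growth arrest is given as TGI.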 *1 amine or outer side, *2 acyl side, *3 side chain or, on linkers, in order; H or OH if unused. Where a SMILES comes first, the peptide text is derived from it. Bridges are numbered along the chain shown (N, C = ends). Roman numbers before positions name the chains, in order. [ ]: non-standard residue; d: D form. Actinocin(9to1) = Cc1c2oc3c(C)ccc(C(=O)[*:1])c3nc-2c(C(=O)[*:2])c(N)c1=O; NMeV = CN[CH](C(=O)O)C(C)C; Sar = CNCC(=O)O

Columns and labels:
Experiment in all cases: growth of human tumour cells (NCI), 48 h
NCI/ADR-RES ovarian = system: NCI/ADR-RES ovarian
MOLT-4 leukemia = system: MOLT-4 leukemia
CAKI-1 renal = system: CAKI-1 renal
TK-10 renal = system: TK-10 renal
EKVX NSCLC = system: EKVX NSCLC
SK-OV-3 ovarian = system: SK-OV-3 ovarian
ACHN renal = system: ACHN renal
RPMI-8226 leukemia = system: RPMI-8226 leukemia
MDA-MB-231 breast = system: MDA-MB-231 breast
HCT-116 colon = system: HCT-116 colon
SK-MEL-5 melanoma = system: SK-MEL-5 melanoma
U251 CNS = system: U251 CNS
MDA-N = system: MDA-N
COLO 205 colon = system: COLO 205 colon
SW-620 colon = system: SW-620 colon
OVCAR-5 ovarian = system: OVCAR-5 ovarian
NCI-H522 lung = system: NCI-H522 lung
A498 renal = system: A498 renal
IGROV1 ovarian = system: IGROV1 ovarian
NCI-H226 lung = system: NCI-H226 lung
BT-549 breast = system: BT-549 breast
SNB-19 CNS = system: SNB-19 CNS
SF-268 CNS = system: SF-268 CNS
A549 NSCLC = system: A549 NSCLC
SF-295 CNS = system: SF-295 CNS
OVCAR-4 ovarian = system: OVCAR-4 ovarian
HCC-2998 colon = system: HCC-2998 colon
PC-3 prostate = system: PC-3 prostate
MDA-MB-435 = system: MDA-MB-435
RXF 393 renal = system: RXF 393 renal
UACC-257 melanoma = system: UACC-257 melanoma
NCI-H23 lung = system: NCI-H23 lung
HCT-15 colon = system: HCT-15 colon
DU-145 prostate = system: DU-145 prostate
HOP-62 NSCLC = system: HOP-62 NSCLC
HT29 colon = system: HT29 colon
MCF7 breast = system: MCF7 breast
M14 melanoma = system: M14 melanoma
SN12C renal = system: SN12C renal
HOP-92 NSCLC = system: HOP-92 NSCLC
SK-MEL-2 melanoma = system: SK-MEL-2 melanoma
K-562 leukemia = system: K-562 leukemia
SNB-75 CNS = system: SNB-75 CNS
UO-31 renal = system: UO-31 renal
SK-MEL-28 melanoma = system: SK-MEL-28 melanoma
NCI-H460 lung = system: NCI-H460 lung
UACC-62 melanoma = system: UACC-62 melanoma
MALME-3M melanoma = system: MALME-3M melanoma
786-0 renal = system: 786-0 renal
KM12 colon = system: KM12 colon
OVCAR-8 ovarian = system: OVCAR-8 ovarian
T-47D breast = system: T-47D breast
HS 578T breast = system: HS 578T breast
SF-539 CNS = system: SF-539 CNS
OVCAR-3 ovarian = system: OVCAR-3 ovarian
HL-60(TB) leukemia = system: HL-60(TB) leukemia
LOX IMVI melanoma = system: LOX IMVI melanoma

S=c1oc(CCCCCCCCc2nn(CNc3ccc(Cl)cc3)c(=S)o2)nn1CNc1ccc(Cl)cc1
TGI (NCI/ADR-RES ovarian): > 100 µM | TGI (MOLT-4 leukemia): > 100 µM | TGI (CAKI-1 renal): > 100 µM | TGI (TK-10 renal): > 100 µM | TGI (EKVX NSCLC): > 100 µM | TGI (SK-OV-3 ovarian): > 100 µM | TGI (ACHN renal): > 100 µM | TGI (RPMI-8226 leukemia): > 100 µM | TGI (MDA-MB-231 breast): > 100 µM | TGI (HCT-116 colon): > 100 µM | TGI (SK-MEL-5 melanoma): 39.8 µM | TGI (U251 CNS): > 100 µM | TGI (MDA-N): > 100 µM | TGI (COLO 205 colon): 22.2 µM | TGI (SW-620 colon): > 100 µM | TGI (OVCAR-5 ovarian): > 100 µM | TGI (NCI-H522 lung): > 100 µM | TGI (A498 renal): > 100 µM | TGI (IGROV1 ovarian): > 100 µM | TGI (NCI-H226 lung): > 100 µM | TGI (BT-549 breast): > 100 µM | TGI (SNB-19 CNS): > 100 µM | TGI (SF-268 CNS): > 100 µM | TGI (A549 NSCLC): > 100 µM | TGI (SF-295 CNS): > 100 µM | TGI (OVCAR-4 ovarian): > 100 µM | TGI (HCC-2998 colon): > 100 µM | TGI (PC-3 prostate): > 100 µM | TGI (MDA-MB-435): > 100 µM | TGI (RXF 393 renal): > 100 µM | TGI (UACC-257 melanoma): > 100 µM | TGI (NCI-H23 lung): > 100 µM | TGI (HCT-15 colon): > 100 µM | TGI (DU-145 prostate): > 100 µM | TGI (HOP-62 NSCLC): 76.1 µM | TGI (HT29 colon): > 100 µM | TGI (MCF7 breast): > 100 µM | TGI (M14 melanoma): > 100 µM | TGI (SN12C renal): > 100 µM | TGI (HOP-92 NSCLC): > 100 µM | TGI (SK-MEL-2 melanoma): > 100 µM | TGI (K-562 leukemia): > 100 µM | TGI (SNB-75 CNS): > 100 µM | TGI (UO-31 renal): > 100 µM | TGI (SK-MEL-28 melanoma): > 100 µM | TGI (NCI-H460 lung): > 100 µM | TGI (UACC-62 melanoma): > 100 µM | TGI (MALME-3M melanoma): > 100 µM | TGI (786-0 renal): > 100 µM | TGI (KM12 colon): > 100 µM

Cc1c2oc3c(C)ccc(C(=O)NC4C(=O)NC(Cc5ccc(O)cc5)C(=O)N5CCCC5C(=O)N(C)CC(=O)N(C)C(C(C)C)C(=O)OC4C)c3nc-2c(C(=O)NC2C(=O)NC(Cc3ccc(O)cc3)C(=O)N3CCCC3C(=O)N(C)CC(=O)N(C)C(C(C)C)C(=O)OC2C)c(N)c1=O (centres undefined) (I: TYP[Sar][NMeV] / II: TYP[Sar][NMeV]; ester I:1-I:C, II:1-II:C; linker I:N-II:N via Actinocin(9to1); configuration not given here)
TGI (NCI/ADR-RES ovarian): > 100 µM | TGI (CAKI-1 renal): 27.5 µM | TGI (TK-10 renal): > 80.3 µM | TGI (EKVX NSCLC): > 100 µM | TGI (OVCAR-8 ovarian): > 100 µM | TGI (SK-OV-3 ovarian): > 100 µM | TGI (ACHN renal): > 100 µM | TGI (T-47D breast): > 79.9 µM | TGI (RPMI-8226 leukemia): > 100 µM | TGI (MDA-MB-231 breast): > 66.9 µM | TGI (HCT-116 colon): > 100 µM | TGI (SK-MEL-5 melanoma): > 86.1 µM | TGI (U251 CNS): > 48.7 µM | TGI (HS 578T breast): 67.3 µM | TGI (MDA-N): > 100 µM | TGI (COLO 205 colon): > 100 µM | TGI (SW-620 colon): > 100 µM | TGI (OVCAR-5 ovarian): > 43.8 µM | TGI (SF-539 CNS): > 100 µM | TGI (NCI-H522 lung): 45.8 µM | TGI (A498 renal): 56.1 µM | TGI (IGROV1 ovarian): 32.6 µM | TGI (NCI-H226 lung): > 100 µM | TGI (SNB-19 CNS): > 56.1 µM | TGI (SF-268 CNS): > 100 µM | TGI (A549 NSCLC): > 100 µM | TGI (SF-295 CNS): > 54.6 µM | TGI (OVCAR-4 ovarian): > 42.1 µM | TGI (HCC-2998 colon): > 100 µM | TGI (PC-3 prostate): > 100 µM | TGI (MDA-MB-435): > 100 µM | TGI (RXF 393 renal): > 57.3 µM | TGI (UACC-257 melanoma): > 100 µM | TGI (NCI-H23 lung): > 79.2 µM | TGI (HCT-15 colon): > 100 µM | TGI (DU-145 prostate): > 72.7 µM | TGI (HOP-62 NSCLC): > 52.2 µM | TGI (OVCAR-3 ovarian): > 48.1 µM | TGI (HT29 colon): > 100 µM | TGI (HL-60(TB) leukemia): > 76.2 µM | TGI (MCF7 breast): 14.6 µM | TGI (M14 melanoma): 28.9 µM | TGI (SN12C renal): > 100 µM | TGI (SK-MEL-2 melanoma): > 43.6 µM | TGI (K-562 leukemia): > 100 µM | TGI (SNB-75 CNS): 20.3 µM | TGI (UO-31 renal): > 61.4 µM | TGI (LOX IMVI melanoma): 19.9 µM | TGI (SK-MEL-28 melanoma): > 87 µM | TGI (NCI-H460 lung): > 100 µM | TGI (UACC-62 melanoma): > 67 µM | TGI (MALME-3M melanoma): 44.3 µM | TGI (786-0 renal): > 74.9 µM | TGI (KM12 colon): > 100 µM
